Assays:
Test in all cases: Pre-emergence soil-applied, greenhouse: visual weed control
Format in all cases: in vivo
[1] = tested on: Brachiaria platyphylla (Groseb.) Nash or Urochloa platyphylla (Nash) R.D. Webster (BRAPP)
Source text: (§1) Seeds or nutlets of the desired test plant species were planted in a soil matrix prepared by mixing a loam soil (e.g., 32 percent silt, 23 percent clay, and 45 percent sand, with a pH of about 6.5 and an organic matter content of about 1.9 percent) and calcareous grit in an 80 to 20 ratio. The soil matrix was contained in plastic pots with a volume of 1 quart and a surface area of 83.6 square centimeters (cm^2).
(§2) Treatments consisted of the benzyl ester of 4-amino-3-chloro-5-fluoro-6-(4-chloro-2-fluoro-3-methoxy-phenyl)pyridine-2-carboxylic acid (compound A) formulated as an SC (suspension concentrate) and various herbicidal components alone and in combination. Forms of compound A were applied on an acid equivalent basis.
(§3) Treatment requirements were calculated based upon the rates being tested, the concentration of active ingredient or acid equivalent in the formulation, and a 12 mL application volume at a rate of 187 L/ha.
(§4) For treatments comprised of formulated compounds, measured amounts of compounds were placed individually in 25 mL glass vials and diluted in a volume of 1.25% (v/v) Agri-Dex® crop oil concentrate (COC) to obtain 12× stock solutions. […] Application solutions were prepared by adding an appropriate amount of each stock solution (e.g., 1 mL) and diluted to the appropriate final concentrations with the addition of 10 mL of an aqueous mixture of 1.25% (v/v) COC so that the final spray solutions contained 1.25% (v/v) COC.
(§5) For treatments comprised of formulated and technical compounds, weighed amounts of the technical materials were placed individually in 25 mL glass vials and dissolved in a volume of 97:3 (v/v) acetone/DMSO to obtain 12× stock solutions, and measured amounts of the formulated compounds were placed individually in 25 mL glass vials and diluted in a volume of 1.5% (v/v) COC or water to obtain 12× stock solutions. […] Application solutions were prepared by adding an appropriate amount of each stock solution (e.g., 1 mL) and diluted to the appropriate final concentrations with the addition of an appropriate amount of an aqueous mixture of 1.5% (v/v) COC so that the final spray solutions contained 1.25% (v/v) COC. As required, additional water and/or 97:3 (v/v) acetone/DMSO was added to individual application solutions so that the final acetone and DMSO concentrations of the application solutions being compared were 8.1% and 0.25%, respectively.
(§6) All stock solutions and applications solutions were visually inspected for compound compatibility prior to application. Spray solutions were applied to the soil with an overhead Mandel track sprayer equipped with a 8002E nozzles calibrated to deliver 187 L/ha over an application area of 0.503 m^2 at a spray height of 18 inches (46 cm) above average pot height. Control pots were sprayed in the same manner with the solvent blank.
(§7) The treated and control pots were placed in a greenhouse and top watered as needed. When required to ensure good germination and healthy plants, a fungicide treatment and/or other chemical or physical treatment was applied. The pots were maintained in a greenhouse with an approximate 14 hr photoperiod which was maintained at about 29° C. during the day and 26° C. during the night. Nutrients (Peters® Excel 15-5-15 5-Ca 2-Mg) were applied in the irrigation solution as needed and water was added on a regular basis. Supplemental lighting was provided with overhead metal halide 1000-Watt lamps as necessary. After approximately 4 weeks, the condition of the test plants as compared with that of the untreated plants was determined visually and scored on a scale of 0 to 100 percent where 0 corresponds to no injury or growth inhibition and 100 corresponds to complete kill.
(§8) Colby's equation was used to determine the herbicidal effects expected from the mixtures (Colby, S. R. 1967. Calculation of the synergistic and antagonistic response of herbicide combinations. Weeds 15:20-22.). […]

[2] = tested on: Echinochloa colonum (L.) Link (ECHCO)
Source text: as §1, §2, §3, §4, §5, §6, §7, §8

[3] = tested on: Echinochloa crus-galli (L.) P. Beauv. (ECHCG)
Source text: as §1, §2, §3, §4, §5, §6, §7, §8

[4] = tested on: Sesbania exaltata (Raf.) Cory/Rydb. Ex Hill (SEBEX); settings: Compound A Benzyl Ester 16 g ae/ha alone
Source text: as §1, §2, §3, §4, §5, §6, §7, §8

[5] = tested on: Setaria faberi Herrm. (SETFA)
Source text: as §1, §2, §3, §4, §5, §6, §7, §8

[6] = tested on: Xanthium strumarium L. (XANST); settings: 27 DAA
Source text: as §1, §2, §3, §4, §5, §6, §7, §8

[7] = Compound A Benzyl Ester 16 g ae/ha alone
[8] = Compound A Benzyl Ester 32 g ae/ha alone

Structure (SMILES) | Visual Weed Control (%) - 33 DAA BRAPP Obs [1, 7] [%] | Visual Weed Control (%) - 33 DAA BRAPP Obs [1, 8] [%] | Visual Weed Control (%) - 33 DAA ECHCO Obs [2, 7] [%] | Visual Weed Control (%) - 33 DAA ECHCO Obs [2, 8] [%] | Visual Weed Control (%) - 33 DAA ECHCG Obs [3, 7] [%] | Visual Weed Control (%) - 33 DAA ECHCG Obs [3, 8] [%] | Visual Weed Control (%) - 33 DAA SEBEX Obs [4] [%] | Visual Weed Control (%) - 33 DAA SETFA Obs [5, 7] [%] | Visual Weed Control (%) - 33 DAA SETFA Obs [5, 8] [%] | Visual Weed Control (%) Obs ([6]; 140 g ai/ha) [%] | Visual Weed Control (%) Obs ([6]; 280 g ai/ha) [%]
COc1c(Cl)ccc(-c2nc(C(=O)OCc3ccccc3)c(Cl)c(N)c2F)c1F [Compound A Benzyl Ester, benzyl ester of 4-amino-3-chloro-5-fluoro-6-(4-chloro-2-fluoro-3-methoxy-phenyl)pyridine-2-carboxylic acid] | 23 | 50 | 12 | 3 | 20 | 33 | 40 | 13 | 13 |  | 
CSC(=O)c1c(C(F)F)nc(C(F)(F)F)c(C(=O)SC)c1CC(C)C [Dithiopyr, S,S′-dimethyl-2-(difluoromethyl)-4-(2-methylpropyl)-6-(trifluoromethyl)-3,5-pyridinedicarbothioate] |  |  |  |  |  |  |  |  |  | 0 | 17
